Results as given in BindingDB's records for doi:10.1111/cbdd.12050 (Epizyme, 2012).

Biological target: Histone-lysine N-methyltransferase, H3 lysine-79 specific (Homo sapiens, UniProt Q8TEK3)
Assay: Enzyme Assay
Procedure: Assay of DOT1L enzymatic activity were performed under balanced conditions using a radiometric assay.

Histone-lysine N-methyltransferase, H3 lysine-79 specific, sequence (Q8TEK3 whole entry): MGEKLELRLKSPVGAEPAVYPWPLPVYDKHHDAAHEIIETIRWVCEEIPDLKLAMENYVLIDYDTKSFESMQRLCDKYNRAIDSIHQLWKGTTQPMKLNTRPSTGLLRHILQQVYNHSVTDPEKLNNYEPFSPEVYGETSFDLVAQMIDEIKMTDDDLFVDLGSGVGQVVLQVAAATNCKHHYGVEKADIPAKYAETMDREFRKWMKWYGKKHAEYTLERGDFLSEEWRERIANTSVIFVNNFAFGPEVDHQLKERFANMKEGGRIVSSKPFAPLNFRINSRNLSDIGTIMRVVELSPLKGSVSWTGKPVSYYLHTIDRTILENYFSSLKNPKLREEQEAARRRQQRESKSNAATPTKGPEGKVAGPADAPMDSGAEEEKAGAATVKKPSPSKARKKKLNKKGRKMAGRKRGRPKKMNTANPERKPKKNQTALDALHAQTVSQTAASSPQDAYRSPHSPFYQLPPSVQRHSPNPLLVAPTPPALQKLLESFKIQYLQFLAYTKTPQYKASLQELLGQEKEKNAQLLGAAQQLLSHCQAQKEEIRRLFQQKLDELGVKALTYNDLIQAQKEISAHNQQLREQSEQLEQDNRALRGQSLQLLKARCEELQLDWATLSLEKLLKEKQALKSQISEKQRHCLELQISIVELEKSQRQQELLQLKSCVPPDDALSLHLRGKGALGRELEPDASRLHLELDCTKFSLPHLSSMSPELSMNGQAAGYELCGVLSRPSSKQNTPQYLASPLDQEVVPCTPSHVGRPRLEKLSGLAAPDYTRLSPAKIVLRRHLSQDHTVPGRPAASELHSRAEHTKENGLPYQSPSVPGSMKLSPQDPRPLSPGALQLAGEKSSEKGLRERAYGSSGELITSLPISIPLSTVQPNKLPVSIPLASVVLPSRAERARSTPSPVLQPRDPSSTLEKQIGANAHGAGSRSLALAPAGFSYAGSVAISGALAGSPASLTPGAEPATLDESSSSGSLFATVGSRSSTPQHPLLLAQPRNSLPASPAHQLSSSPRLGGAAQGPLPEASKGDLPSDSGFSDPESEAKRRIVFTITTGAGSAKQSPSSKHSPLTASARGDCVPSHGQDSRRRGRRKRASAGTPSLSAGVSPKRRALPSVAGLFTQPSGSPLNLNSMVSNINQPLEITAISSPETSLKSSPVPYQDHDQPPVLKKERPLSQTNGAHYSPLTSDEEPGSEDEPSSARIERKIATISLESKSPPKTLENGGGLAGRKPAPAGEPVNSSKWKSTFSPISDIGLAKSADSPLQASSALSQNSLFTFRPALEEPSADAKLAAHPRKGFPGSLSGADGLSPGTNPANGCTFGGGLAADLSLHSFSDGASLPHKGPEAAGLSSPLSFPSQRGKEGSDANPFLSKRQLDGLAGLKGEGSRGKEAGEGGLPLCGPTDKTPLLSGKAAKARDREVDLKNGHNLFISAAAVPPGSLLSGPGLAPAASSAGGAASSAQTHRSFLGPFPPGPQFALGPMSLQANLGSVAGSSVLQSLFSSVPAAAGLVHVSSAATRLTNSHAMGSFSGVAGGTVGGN

Kd: 0.167 µM
Ki: 0.845 µM
Compound: CN(CCNC(=O)Nc1ccc(C(C)(C)C)cc1)CC1OC(n2cnc3c(N)ncnc32)[C@H](O)[C@@H]1O (some centres not stated) [EPZ003647]
